Inhibition data for one compound are collected here from ChEMBL document CHEMBL5532636 (Eur J Med Chem, 2023).

This experiment concerns SARS-CoV-2. The experiment can be described thus: Antiviral activity against SARS-CoV-2 Omicron BA.5 variant infected in African green monkey Vero E6 cells assessed as inhibition in viral replication at 25 ug/ml preincubated with cell culture for 1 hr and further infected with virus for 1 hr followed by removal of virus particles and subsequent replacement of medium containing compound measured for 72 hrs post-infection by RT-PCR analysis relative to control. In kind it is functional. As to conditions: Severe acute respiratory syndrome coronavirus 2, Omicron BA.5, Vero C1008, time 73 hrs.

As a reminder, the inhibition is how much of the control response was suppressed. Take `O=c1cc(-c2ccccc2)oc2cc(O)c(O)c(O)c12` [BAICALEIN]: the inhibition at 25 µg/mL was over 50%.
